According to ChEMBL document CHEMBL4130359, “Indazole-based ligands for estrogen-related receptor α as potential anti-diabetic agents” (Eur J Med Chem, 2017):

Experiments:
[1] = tested on: Rattus norvegicus; test: Toxicity in Zucker rat sub-chronic fa/fa prediabetic model assessed as serum triglyceride level at 10 mg/kg, po qd for 31 days measured on day 32 (reference value: 1382 +/- 268 mg/dl); type: organism-based; details: in vivo, 744 h
[2] = tested on: Rattus norvegicus; test: Toxicity in […] model assessed as liver weight at 10 mg/kg, po qd for 31 days measured on day 32 (reference value: 2.77 +/- 0.16 g); type: organism-based; details: in vivo, 744 h
[3] = tested on: Rattus norvegicus; test: Toxicity in Zucker rat sub-chronic fa/fa prediabetic model assessed as heart weight at 10 mg/kg, po qd for 31 days measured on day 32 (reference value: 1.19 +/- 0.04 g); type: organism-based; details: in vivo, 744 h
[4] = tested on: Rattus norvegicus; test: Toxicity in […] model assessed as serum cholesterol level at 10 mg/kg, po qd for 31 days measured on day 32 (reference value: 195 +/- 5.5 mg/dl); type: organism-based; details: in vivo, 744 h
[5] = tested on: Rattus norvegicus; test: Toxicity in Zucker rat sub-chronic fa/fa prediabetic model assessed as triglyceride level per gram liver at 10 mg/kg, po qd for 31 days measured on day 32 (reference value: 163.4 +/- 8.3 mg); type: organism-based; details: in vivo, 744 h
[6] = tested on: Rattus norvegicus; test: Toxicity in […] chronic ob/ob model assessed as serum triglyceride level at 10 mg/kg, po qd for 31 days measured on day 32 (reference value: 329 +/- 36 mg/dl); type: organism-based; details: in vivo, 744 h
[7] = tested on: Rattus norvegicus; test: Toxicity in […] model assessed as serum AST level at 10 mg/kg, po qd for 31 days measured on day 32 (reference value: 180 +/- 26 U/L); type: organism-based; details: in vivo, 744 h
[8] = tested on: Rattus norvegicus; test: Toxicity in […] model assessed as serum creatinine level at 10 mg/kg, po qd for 31 days measured on day 32 (reference value: 0.55 +/- 0.018 mg/dl); type: organism-based; details: in vivo, 744 h
[9] = tested on: Rattus norvegicus; test: Toxicity in […] chronic ob/ob model assessed as change in body weight at 10 mg/kg, po qd for 28 days measured on day 1 to 28 during compound dosing (reference value: 9.9 +/- 1.27 g); type: organism-based; details: in vivo, 672 h
[10] = tested on: Rattus norvegicus; test: Toxicity in Zucker rat sub-chronic fa/fa prediabetic model assessed as serum ALT level at 10 mg/kg, po qd for 31 days measured on day 32 (reference value: 151 +/- 23 U/L); type: organism-based; details: in vivo, 744 h
[11] = tested on: Rattus norvegicus; test: Toxicity in Zucker rat sub-chronic fa/fa prediabetic model assessed as serum AST level at 10 mg/kg, po qd for 31 days measured on day 32 (reference value: 187 +/- 37 U/L); type: organism-based; details: in vivo, 744 h
[12] = tested on: Rattus norvegicus; test: Toxicity in Zucker rat sub-chronic fa/fa prediabetic model assessed as liver weight at 10 mg/kg, po qd for 31 days measured on day 32 (reference value: 28 +/- 1.6 g); type: organism-based; details: in vivo, 744 h
[13] = tested on: Rattus norvegicus; test: Toxicity in […] chronic ob/ob model assessed as brown adipose tissue weight at 10 mg/kg, po qd for 31 days measured on day 32 (reference value: 0.59 +/- 0.05 g); type: organism-based; details: in vivo, 744 h
[14] = tested on: Rattus norvegicus; test: Toxicity in […] chronic ob/ob model assessed as food intake at 10 mg/kg, po qd for 28 days measured on day 1 to 28 during compound dosing (reference value: 170.6 +/- 3 g); type: organism-based; details: in vivo, 672 h
[15] = tested on: Rattus norvegicus; test: Toxicity in Zucker rat sub-chronic fa/fa prediabetic model assessed as serum BUN level at 10 mg/kg, po qd for 31 days measured on day 32 (reference value: 28.3 +/- […]); type: organism-based; details: in vivo, 744 h
[16] = tested on: Rattus norvegicus; test: Antidiabetic activity in […] chronic ob/ob model assessed as increase in plasma adiponectin level at 10 mg/kg, po qd for 31 days measured on day 32 by ELISA relative to control; type: functional
[17] = tested on: Rattus norvegicus; test: Toxicity in […] model assessed as serum BUN level at 10 mg/kg, po qd for 31 days measured on day 32 (reference value: 28.3 +/- […]); type: organism-based; details: in vivo, 744 h
[18] = tested on: Rattus norvegicus; test: Toxicity in Zucker rat sub-chronic fa/fa prediabetic model assessed as serum cholesterol level at 10 mg/kg, po qd for 31 days measured on day 32 (reference value: 295 +/- 91 mg/dl); type: organism-based; details: in vivo, 744 h
[19] = tested on: Rattus norvegicus; test: Toxicity in Zucker rat sub-chronic fa/fa prediabetic model assessed as serum creatinine level at 10 mg/kg, po qd for 31 days measured on day 32 (reference value: 0.71 +/- 0.07 mg/dl); type: organism-based; details: in vivo, 744 h
[20] = tested on: Rattus norvegicus; test: Toxicity in […] chronic ob/ob model assessed as epididymal white adipose tissue weight at 10 mg/kg, po qd for 31 days measured on day 32 (reference value: 3.92 +/- 0.14 g); type: organism-based; details: in vivo, 744 h
[21] = tested on: Rattus norvegicus; test: Toxicity in Zucker rat sub-chronic fa/fa prediabetic model assessed as brown adipose tissue weight at 10 mg/kg, po qd for 31 days measured on day 32 (reference value: 2.1 +/- 0.3 g); type: organism-based; details: in vivo, 744 h
[22] = tested on: Rattus norvegicus; test: Toxicity in […] chronic ob/ob model assessed as body weight at 10 mg/kg, po qd for 28 days measured on day 28 post last dose (reference value: 47.3 +/- 1.06 g); type: organism-based; details: in vivo, 672 h
[23] = tested on: Rattus norvegicus; test: Toxicity in Zucker rat sub-chronic fa/fa prediabetic model assessed as body weight at 10 mg/kg, po qd for 29 days measured on day 29 post last dose (reference value: 533 +/- 10 g); type: organism-based; details: in vivo, 696 h
[24] = tested on: Rattus norvegicus; test: Toxicity in Zucker rat sub-chronic fa/fa prediabetic model assessed as food intake at 10 mg/kg, po qd for 29 days measured on day 1 to 29 during compound dosing (reference value: 969 +/- 18 g); type: organism-based; details: in vivo, 696 h
[25] = tested on: Rattus norvegicus; test: Toxicity in Zucker rat sub-chronic fa/fa prediabetic model assessed as epididymal white adipose tissue weight at 10 mg/kg, po qd for 31 days measured on day 32 (reference value: 13.9 +/- 0.6 g); type: organism-based; details: in vivo, 744 h
[26] = tested on: Rattus norvegicus; test: Toxicity in […] model assessed as serum ALT level at 10 mg/kg, po qd for 31 days measured on day 32 (reference value: 127 +/- 9 U/L); type: organism-based; details: in vivo, 744 h
[27] = tested on: Rattus norvegicus; test: Toxicity in Zucker rat sub-chronic fa/fa prediabetic model assessed as insulin level per gram pancreas at 10 mg/kg, po qd for 31 days measured on day 32 (reference value: 55.2 +/- 5.5 ug); type: organism-based; details: in vivo, 744 h
[28] = tested on: Rattus norvegicus; test: Toxicity in Zucker rat sub-chronic fa/fa prediabetic model assessed as change in body weight at 10 mg/kg, po qd for 29 days measured on day 1 to 29 during compound dosing (reference value: 140 +/- 7 g); type: organism-based; details: in vivo, 696 h

Compound: CN(CCOc1ccc(CC2SC(=O)NC2=O)cc1)c1ccccn1 (stereo not drawn) [ROSIGLITAZONE]
- Activity [1]: 195 mg/dL
- Activity [2]: 3.93 g
- Activity [3]: 1.37 g
- Activity [4]: 184 mg/dL
- Activity [5]: 102.5 mg
- Activity [6]: 77 mg/dL
- Activity [7]: 364 U/L
- Activity [8]: 0.41 mg/dL
- Activity [9]: 13 g
- Activity [10]: 136 U/L
- Activity [11]: 147 U/L
- Activity [12]: 20.9 g
- Activity [13]: 1.26 g
- Activity [14]: 157.3 g
- Activity [15]: 27.2 mg/dL
- fold change (FC) [16]: 2.6
- Activity [17]: 33.1 mg/dL
- Activity [18]: 141 mg/dL
- Activity [19]: 0.54 mg/dL
- Activity [20]: 3.32 g
- Activity [21]: 7.6 g
- Activity [22]: 50.5 g
- Activity [23]: 617 g
- Activity [24]: 1248 g
- Activity [25]: 22.7 g
- Activity [26]: 366 U/L
- Activity [27]: 90.7 µg
- Activity [28]: 213 g
